Patent US4105768A, “Hypotensive substituted 1,2,4-triazoles” (priority 1973, dated 1978)
Like-named read-outs stand apart in the source and are kept apart here.

How the values were obtained:
[1] = tested on: renal hypertensive rats; assay: Antihypertensive effect (mean arterial blood pressure) in unanaesthetized renal hypertensive rats, oral; type: in vivo, rat; details: for Minimum daily oral dose with antihypertensive effects defined as the dose which reduced the mean arterial blood pressure more than 15 mm Hg in unanaesthetized renal hypertensive rats: three consecutive daily oral doses, measured before and three hours after administration
Description: The antihypertensive effects were tested in rats in which high blood pressure had been produced by removal of one kidney and restricting the blood flow to the remaining one two months before the experiments. The animals were prepared for measurements of the arterial blood pressure through a catheter implanted into the abdonimal aorta and exteriorized at the base of the neck. Groups of two rats were given three consecutive daily oral doses of the test compounds from the scale: 2.5, 5, 10, 20, and 40 mg/kg. Measurements were performed before and three hours after administration to the unanaesthetized animal. The minimum daily oral dose with antihypertensive effect was defined as the dose which reduced the mean arterial blood pressure more than 15 mm Hg.

[2] = Effect on the spontaneous motor activity of mice; type: in vivo, mouse; details: mouse, in vivo, ip, read-out: Intraperitoneal dose which reduced the spontaneous motor activity of mice to 50 % of control values; for ED50 at 1 h: measurements one hour after administration; for ED50 at 3 h: measurements three hours after administration
Description: (§1) The effect on the spontaneous motor activity was tested in mice. Groups of six animals were given the test compounds intraperitoneally one and three hours before test. The animals were placed individually in an activity meter and the activity was recorded for ten minutes. The dose which reduced the spontaneous motor activity to 50 percent of that of control mice was calculated.

[3] = tested on: anaesthetized rats; type: in vivo, rat
[4] = Acute toxicity in mice (LD50 i.p.); details: mouse, in vivo, ip
[5] = tested on: spontaneously hypertensive rats of the SHR/N strain; assay: Antihypertensive effect in spontaneously hypertensive rats, oral; type: in vivo; details: Rattus norvegicus, 3 h; three consecutive daily oral doses; measured before and three hours after administration; unanesthetized SHR/N rats; read-out: effective antihypertensive dose, defined as the dose which reduced the mean arterial blood pressure more than 30 mm Hg
Description: The antihypertensive effects of the hydrochloride salt of the compound of the invention with the designation FLA 486 having the formula [drawing 25] have been compared with those of FLA 136 with the formula [drawing 26] in spontaneously hypertensive rats of the SHR/N strain (Mollegaard Hansens Avlslaboratorier A/S, Denmark). The animals were prepared for measurements of the arterial blood pressure through a catheter implanted into the abdominal aorta and exteriorized at the base of the neck. Groups of two rats were given three consecutive daily oral doses of the test compounds. Measurements were performed before and three hours after administration to the unanesthetized animal. The effective antihypertensive dose of FLA 486, defined as the dose which reduced the mean arterial blood pressure more than 30 mm Hg was 5-10 mg/kg. The corresponding value for FLA 136 was 5-10 mg/kg.

[6] = tested on: mice; assay: Effect on the spontaneous motor activity of mice; type: in vivo, mouse; details: i.p., mice; compared to Wy-8678
Description: as §1

SMILES: NC(N)=NN=Cc1c(Cl)cccc1Cl [Wy-8678, reference compound]
- Minimum daily oral dose with antihypertensive effects defined as the dose which reduced the mean arterial blood pressure more than 15 mm Hg in unanaesthetized renal hypertensive rats [1]: 2.5 mg/kg
- ED50 at 1 h [2]: 3 mg/kg
- ED50 at 3 h [2]: 3 mg/kg
- initial rise in blood pressure ([3]; intravenous, consecutive increasing doses, anaesthetized rats, highest dose tested of test compound 40 mg/kg): produced a large increase in arterial pressure even at doses as low as 0.01 mg/kg
- LD50 [4]: 70 mg/kg

SMILES: CNn1cnnc1NN=Cc1c(Cl)cccc1Cl [FLA 486]
- minimal effective dose [5]: 5 to 10 mg/kg

SMILES: Cl.Nn1cnnc1NN=Cc1c(Cl)cccc1Cl [FLA 136, 4-Amino-3-(2,6-dichlorobenzylidenehydrazino)-1,2,4-triazole hydrochloride]
- antihypertensive effect (in words) ([1]; oral, compared with Wy-8678): of the same degree as that of one of the present known most active hypotensive compounds
- Minimum daily oral dose with antihypertensive effects defined as the dose which reduced the mean arterial blood pressure more than 15 mm Hg in unanaesthetized renal hypertensive rats [1]: 2.5 to 5 mg/kg
- ED50 at 1 h [2]: 90 mg/kg
- ED50 at 3 h [2]: 170 mg/kg
- sedative effects (in words) [6]: lack of sedative effects
- initial rise in blood pressure ([3]; rat, in vivo, iv, 40 mg/kg): did not produce an initial rise in blood pressure even at 40 mg/kg
- minimal effective dose [5]: 5 to 10 mg/kg
- LD50 [4]: 340 mg/kg
